ChEMBL document CHEMBL4229435, “Synthesis and antimicrobial activity of β-carboline derivatives with N2-alkyl modifications” (2018)
≈ marks a conversion by molar mass, not a printed value.

What was measured:
Type in all cases: functional
[1] = system: Acinetobacter baumannii; test: Antimicrobial activity against Acinetobacter baumannii GAI 07545 after 24 hrs by agar plate dilution method; conditions: GAI 07545, 24 h
[2] = system: Candida albicans; test: Antimicrobial activity against Candida albicans GAI 05108 after 24 hrs by agar plate dilution method; conditions: GAI 05108, 24 h
[3] = system: Pichia kudriavzevii; test: Antimicrobial activity against Candida krusei ATCC 14243 after 24 hrs by agar plate dilution method; conditions: ATCC 14243, 24 h
[4] = system: Staphylococcus aureus; test: Antimicrobial activity against methicillin-sensitive Staphylococcus aureus ATCC 25923 after 24 hrs by agar plate dilution method; conditions: ATCC 25923, 24 h
[5] = system: Staphylococcus aureus; test: Antimicrobial activity against methicillin-resistant Staphylococcus aureus GAI 10153 after 24 hrs by agar plate dilution method; conditions: GAI 10153, 24 h
[6] = system: Pseudomonas aeruginosa; test: Antimicrobial activity against Pseudomonas aeruginosa GAI 12066 after 24 hrs by agar plate dilution method; conditions: GAI 12066, 24 h
[7] = system: Escherichia coli; test: Antimicrobial activity against Escherichia coli ATCC 25922 after 24 hrs by agar plate dilution method; conditions: ATCC 25922, 24 h
[8] = system: [Candida] intermedia; test: Antimicrobial activity against Candida intermedia GAI 15003 after 24 hrs by agar plate dilution method; conditions: Sungouiella intermedia, GAI 15003, 24 h
[9] = system: Staphylococcus aureus; test: Antimicrobial activity against methicillin-resistant Staphylococcus aureus GAI 10151 after 24 hrs by agar plate dilution method; conditions: GAI 10151, 24 h
[10] = system: Staphylococcus aureus; test: Antimicrobial activity against methicillin-resistant Staphylococcus aureus GAI 10152 after 24 hrs by agar plate dilution method; conditions: GAI 10152, 24 h
[11] = system: Staphylococcus aureus; test: Antimicrobial activity against methicillin-resistant Staphylococcus aureus GAI 11112 after 24 hrs by agar plate dilution method; conditions: GAI 11112, 24 h

Clc1ccc2[nH]c3c[n+](Cc4ccccn4)ccc3c2c1
MIC [1]: > 1000 µM | MIC [2]: > 1000 µM | MIC [3]: > 1000 µM | MIC [4]: > 1000 µM | MIC [5]: > 1000 µM | MIC [6]: > 1000 µM | MIC [7]: > 1000 µM | MIC [8]: 500 µM | MIC [9]: > 1000 µM | MIC [10]: > 1000 µM

Clc1ccc2c(c1)c1cc[n+](Cc3ccccn3)cc1n2-n1c2ccc(Cl)cc2c2cc[n+](Cc3ccccn3)cc21
MIC [1]: > 1000 µM | MIC [2]: > 1000 µM | MIC [3]: > 1000 µM | MIC [4]: > 1000 µM | MIC [5]: > 1000 µM | MIC [6]: > 1000 µM | MIC [7]: > 1000 µM | MIC [8]: 500 µM | MIC [9]: > 1000 µM | MIC [10]: > 1000 µM

C[n+]1ccc2c3cc(Cl)ccc3n(-n3c4ccc(Cl)cc4c4cc[n+](C)cc43)c2c1
MIC [1]: > 1000 µM | MIC [2]: > 1000 µM | MIC [3]: 500 µM | MIC [4]: 50 µM | MIC [5]: 50 µM | MIC [6]: > 1000 µM | MIC [7]: 500 µM | MIC [8]: 50 µM | MIC [9]: 500 µM | MIC [10]: 50 µM

C[n+]1ccc2c(c1)[nH]c1ccc(Cl)cc12 [NOSTOCARBOLINE]
MIC [1]: > 1000 µM | MIC [2]: > 1000 µM | MIC [3]: 50 µM | MIC [4]: > 1000 µM | MIC [5]: > 1000 µM | MIC [6]: > 1000 µM | MIC [7]: 500 µM | MIC [8]: > 1000 µM | MIC [9]: > 1000 µM | MIC [10]: > 1000 µM

c1ccc2c(c1)c1ccncc1n2-n1c2ccccc2c2ccncc21
MIC [2]: > 1000 µM | MIC [3]: > 1000 µM | MIC [4]: > 1000 µM | MIC [7]: > 1000 µM | MIC [8]: 125 µM (≈ 41.8 µg/mL) | MIC [11]: > 1000 µM

C[n+]1ccc2c3ccccc3n(-n3c4ccccc4c4cc[n+](C)cc43)c2c1
MIC [2]: 500 µM | MIC [3]: 500 µM | MIC [4]: 125 µM | MIC [7]: 1000 µM | MIC [8]: 125 µM | MIC [11]: 125 µM

c1ccc2c(c1)[nH]c1cnccc12 [NORHARMANE]
MIC [2]: 125 µM (≈ 21 µg/mL) | MIC [3]: 125 µM (≈ 21 µg/mL) | MIC [4]: > 1000 µM | MIC [7]: 250 µM (≈ 42 µg/mL) | MIC [8]: 125 µM (≈ 21 µg/mL) | MIC [11]: 250 µM (≈ 42 µg/mL)

Clc1ccc2[nH]c3c[n+](Cc4ccccc4)ccc3c2c1
MIC [1]: 500 µM | MIC [2]: > 1000 µM | MIC [3]: 500 µM | MIC [4]: > 1000 µM | MIC [5]: 500 µM | MIC [6]: > 1000 µM | MIC [7]: > 1000 µM | MIC [8]: 10 µM | MIC [9]: 500 µM | MIC [10]: 500 µM

Clc1ccc2c(c1)c1cc[n+](Cc3ccccc3)cc1n2-n1c2ccc(Cl)cc2c2cc[n+](Cc3ccccc3)cc21
MIC [1]: 500 µM | MIC [2]: 500 µM | MIC [3]: 500 µM | MIC [4]: 10 µM | MIC [5]: 10 µM | MIC [6]: > 1000 µM | MIC [7]: 500 µM | MIC [8]: 10 µM | MIC [9]: 50 µM | MIC [10]: 10 µM

C[n+]1ccc2c(c1)[nH]c1ccccc12
MIC [2]: 500 µM | MIC [3]: 125 µM | MIC [4]: > 1000 µM | MIC [7]: 1000 µM | MIC [8]: 125 µM | MIC [11]: 1000 µM
